Columns and labels:
MRP2 = MRP2 (Homo sapiens, UniProt Q92887); experiment: Plasma membrane vesicle transport assay, MRP2 vesicles; details: for Difference in MRP2 vesicle uptake between ATP and AMP: 10 μM, 1 min (Fig. 9)
P-gp = P-gp (Homo sapiens, UniProt P08183); experiment: Plasma membrane vesicle transport assay, P-gp vesicles; format: in vitro ADME; details: for Difference in P-gp vesicle uptake between ATP and AMP: 10 μM, 1 min (Fig. 9)
OCT1 = molecular target: T1, OCT1 (Homo sapiens, UniProt O15245); experiment: Cellular uptake assay, HEK/OCT1 vs HEK empty vector cells
T1 sequence (O15245 1-554): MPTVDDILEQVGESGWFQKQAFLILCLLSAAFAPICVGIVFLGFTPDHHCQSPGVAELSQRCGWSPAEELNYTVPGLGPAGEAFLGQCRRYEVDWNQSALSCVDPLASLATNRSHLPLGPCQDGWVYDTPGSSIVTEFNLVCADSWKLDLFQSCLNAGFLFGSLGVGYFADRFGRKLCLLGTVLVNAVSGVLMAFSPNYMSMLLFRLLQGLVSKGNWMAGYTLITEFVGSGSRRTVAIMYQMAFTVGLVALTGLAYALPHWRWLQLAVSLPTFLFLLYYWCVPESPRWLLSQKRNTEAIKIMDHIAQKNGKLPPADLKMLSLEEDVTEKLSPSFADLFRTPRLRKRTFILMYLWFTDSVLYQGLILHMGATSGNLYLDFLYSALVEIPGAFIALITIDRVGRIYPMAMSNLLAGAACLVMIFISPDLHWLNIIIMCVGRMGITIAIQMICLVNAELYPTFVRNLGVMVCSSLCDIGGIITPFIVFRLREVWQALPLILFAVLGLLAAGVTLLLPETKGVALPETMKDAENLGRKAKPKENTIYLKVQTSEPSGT

[1] = higher than BUP; ref [10], [13], [16], [17]; cited from earlier work
[2] = ref [14], [15]; cited from earlier work
[3] = co-administration of clopidogrel and ticlopidine; ref [25]; cited from earlier work

Sequence of P-gp (P08183 whole entry): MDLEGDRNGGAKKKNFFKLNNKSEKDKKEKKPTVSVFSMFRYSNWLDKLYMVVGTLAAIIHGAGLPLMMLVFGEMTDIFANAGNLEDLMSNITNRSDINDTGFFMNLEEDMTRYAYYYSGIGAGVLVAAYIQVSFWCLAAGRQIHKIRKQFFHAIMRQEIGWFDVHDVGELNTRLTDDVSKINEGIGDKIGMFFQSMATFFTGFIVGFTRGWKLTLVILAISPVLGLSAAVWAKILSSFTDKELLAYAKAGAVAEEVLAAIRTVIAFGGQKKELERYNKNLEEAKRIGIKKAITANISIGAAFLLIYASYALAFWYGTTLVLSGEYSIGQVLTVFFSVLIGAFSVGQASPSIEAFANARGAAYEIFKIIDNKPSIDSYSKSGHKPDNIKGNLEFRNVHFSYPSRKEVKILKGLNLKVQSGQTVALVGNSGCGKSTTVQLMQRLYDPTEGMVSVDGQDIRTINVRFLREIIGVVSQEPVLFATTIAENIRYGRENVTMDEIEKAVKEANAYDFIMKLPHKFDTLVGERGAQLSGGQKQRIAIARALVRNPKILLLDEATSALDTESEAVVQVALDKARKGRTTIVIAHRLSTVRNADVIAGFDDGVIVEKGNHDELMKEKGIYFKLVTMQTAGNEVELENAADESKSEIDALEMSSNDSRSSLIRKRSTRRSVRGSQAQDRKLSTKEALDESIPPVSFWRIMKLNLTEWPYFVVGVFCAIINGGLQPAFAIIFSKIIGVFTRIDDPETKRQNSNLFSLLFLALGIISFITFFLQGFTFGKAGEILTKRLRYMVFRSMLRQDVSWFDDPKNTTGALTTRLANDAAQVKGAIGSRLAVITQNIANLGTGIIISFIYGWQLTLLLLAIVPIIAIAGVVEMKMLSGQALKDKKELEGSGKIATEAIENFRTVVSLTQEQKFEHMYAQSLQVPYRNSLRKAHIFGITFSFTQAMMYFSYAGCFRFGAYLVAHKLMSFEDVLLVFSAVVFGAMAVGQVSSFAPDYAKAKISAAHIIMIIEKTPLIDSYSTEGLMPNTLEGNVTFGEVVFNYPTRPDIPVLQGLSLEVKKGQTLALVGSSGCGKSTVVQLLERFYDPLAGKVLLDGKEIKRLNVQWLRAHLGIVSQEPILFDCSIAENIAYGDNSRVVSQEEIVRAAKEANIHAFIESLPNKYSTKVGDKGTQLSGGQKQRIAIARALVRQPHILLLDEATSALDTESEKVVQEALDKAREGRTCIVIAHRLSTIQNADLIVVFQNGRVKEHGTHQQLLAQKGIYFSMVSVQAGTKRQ
Sequence of MRP2 (Q92887 whole entry): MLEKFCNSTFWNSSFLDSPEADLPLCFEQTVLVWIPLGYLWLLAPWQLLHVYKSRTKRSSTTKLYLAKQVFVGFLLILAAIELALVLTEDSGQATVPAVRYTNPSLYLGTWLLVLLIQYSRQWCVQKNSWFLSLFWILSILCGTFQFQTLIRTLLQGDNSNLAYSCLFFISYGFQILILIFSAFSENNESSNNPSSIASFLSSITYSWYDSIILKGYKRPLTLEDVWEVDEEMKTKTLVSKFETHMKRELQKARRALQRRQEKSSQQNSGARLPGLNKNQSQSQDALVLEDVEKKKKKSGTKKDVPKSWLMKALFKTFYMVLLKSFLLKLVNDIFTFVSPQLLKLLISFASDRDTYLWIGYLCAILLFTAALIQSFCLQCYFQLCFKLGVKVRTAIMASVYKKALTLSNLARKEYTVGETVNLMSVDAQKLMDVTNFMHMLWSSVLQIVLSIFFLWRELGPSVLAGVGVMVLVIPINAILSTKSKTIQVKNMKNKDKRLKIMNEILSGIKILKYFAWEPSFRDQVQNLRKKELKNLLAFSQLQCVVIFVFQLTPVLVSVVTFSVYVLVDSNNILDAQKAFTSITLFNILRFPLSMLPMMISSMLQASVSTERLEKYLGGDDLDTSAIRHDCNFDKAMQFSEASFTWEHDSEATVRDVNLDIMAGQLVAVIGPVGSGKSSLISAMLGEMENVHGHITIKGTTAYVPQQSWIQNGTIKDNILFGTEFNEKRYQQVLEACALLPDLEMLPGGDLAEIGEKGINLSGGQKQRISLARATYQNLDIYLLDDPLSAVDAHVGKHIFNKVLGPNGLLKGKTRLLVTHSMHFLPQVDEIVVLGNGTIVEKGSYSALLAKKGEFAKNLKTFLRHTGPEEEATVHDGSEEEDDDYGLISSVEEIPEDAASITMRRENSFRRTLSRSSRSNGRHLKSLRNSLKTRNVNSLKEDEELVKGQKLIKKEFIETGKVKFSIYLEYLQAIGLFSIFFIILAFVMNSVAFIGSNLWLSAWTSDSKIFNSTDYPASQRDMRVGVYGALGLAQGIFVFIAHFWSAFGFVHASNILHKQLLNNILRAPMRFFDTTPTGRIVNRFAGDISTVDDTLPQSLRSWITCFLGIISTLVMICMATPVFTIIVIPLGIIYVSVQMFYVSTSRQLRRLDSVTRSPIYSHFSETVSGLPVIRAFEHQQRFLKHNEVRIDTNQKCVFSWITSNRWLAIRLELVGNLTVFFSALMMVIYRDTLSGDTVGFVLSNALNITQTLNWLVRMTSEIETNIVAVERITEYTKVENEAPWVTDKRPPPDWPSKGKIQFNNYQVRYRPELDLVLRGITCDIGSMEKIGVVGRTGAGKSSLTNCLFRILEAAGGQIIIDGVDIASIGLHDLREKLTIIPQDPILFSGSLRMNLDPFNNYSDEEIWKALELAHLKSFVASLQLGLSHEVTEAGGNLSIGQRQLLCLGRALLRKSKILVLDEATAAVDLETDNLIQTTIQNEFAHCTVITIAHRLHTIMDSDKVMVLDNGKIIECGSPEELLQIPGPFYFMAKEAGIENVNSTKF

SMILES	Substrate of MRP2 (conclusion) (MRP2)	Difference in MRP2 vesicle uptake between ATP and AMP (MRP2)	Substrate of P-gp (conclusion) (P-gp)	Difference in P-gp vesicle uptake between ATP and AMP (P-gp)	Substrate of OCT1 (conclusion) (OCT1)	Circulating concentration relative to the parent drug [1]	Pharmacological activity relative to BUP [2]	Decrease in AUC [3]
C[C@H](NC(C)(C)C)[C@@H](O)c1cccc(Cl)c1 [TB, Threohydrobupropion]	not substrates	No significant differences	not substrates	No significant differences	not substrates	3 – 30 fold	20%	–
C[C@H]1NC(C)(C)CO[C@]1(O)c1cccc(Cl)c1 [OHB, Hydroxybupropion]	not substrates	No significant differences	not substrates	No significant differences	not substrates	3 – 30 fold	50–100%	60–89%
CC(NC(C)(C)C)C(O)c1cccc(Cl)c1 (stereo not drawn) [EB, Erythrohydrobupropion]	not substrates	No significant differences	not substrates	No significant differences	not substrates	–	20%	–

Reference: PMC7451048 (Drug metabolism letters, 2019)
